Patent US20250314636A1, “METHOD OF PREPARING AND EXPANDING A POPULATION OF IMMUNE CELLS FOR CANCER THERAPY, POTENCY ASSAY FOR TUMOR RECOGNITION, BIOLOGICAL VACCINE PREPARATION AND EPITOPETARGET FOR ANTIBODIES” (FUNDAÇÃO D. ANNA DE SOMMER CHAMPALIMAUD E DR. CARLOS MONTEZ …, priority 2022, published 2025)
Several values for one entry are separate records, joined by “and”; a condition that tells them apart may be missing. Identical values can stand only once. Entries after “also recorded” stand apart in the source; their conditions may differ.

Assays:
[1] = tested on: NRLP3 pathway; experiment: Testing of the NRLP3 pathway: KRAS peptide recognition by TIL expanded with or without MCC950; type: cell-based, human; details: TIL expanded with cardiolipin in presence of MCC950 (10 uM/mL)
Experimental: The number of peptide targets recognized as well as the amount of IFN-γ in pg/10e^4 TIL/target/7 days was analyzed and compared in the cardiolipin-positive versus negative group testing with Human IFN-γ ELISA basic kit (HRP).
Since cardiolipin has been reported to activate the NRLP3 inflammasome, aliquots of these same TIL preparation were expanded and the absence or presence of the NRLP3 inhibitor (MCC950) was investigated.

[2] = tested on: human IgG in serum from patients with pancreatic cancer; experiment: ELISA of serum IgG binding to MUC4 epitope PVTSLSSVSTGDTTP (OD 405 nm); details: sera from patient S1 and S15, dilutions 1:2 and 1:10
Source text: The MUC4 peptide is targeted by human IgG in serum from patients with cancer. […] The epitope PVTSLSSVSTGDTTP was linked to an ELISA plate via a streptavidin-biotin scaffold and tested for IgG recognition in serum from different patients with pancreatic cancer. The optical density (OD) read at 405 nm wavelength was used to detect IgG binding in sera from patients showing that some individuals have a higher IgG concentration to this epitope as compared to other patients, some patients have no IgG reactivity at all showing that there is individual IgG reactivity to this distinct MUC4 epitopes. The anti-human IgG directed antibody A2064 clone GG-5 from Sigma-Aldrich coupled to Alkaline-Phosphatase was used to detect epitope reactivity. The assay layout and reactivity reading are shown in Tables 12 and 13 (layouts and ODs, respectively) below.
Sera from different patients with PDAC (labeled as S1-S15) were incubated with the target epitope at different dilutions in phosphate-buffered saline (PBS) (1:2 and 1:10) and reactivity was tested based on the OD reading.

[3] = tested on: TIL; experiment: Peptide recognition assay in TIL (IFN-γ ELISA / IL-17 in supernatant, 7 days); type: cell-based, human
Experimental: Peptides from tumor-associated antigens (TAAs), listed in Table 5 were placed at 1 ug/well in duplicates using anti-CD3 at 30 ng/mL as well as PHA at 5 μg/mL as positive controls.
The differences in TIL versus PBMCs can also be defined by peptide reactivity. 10e^4 TIL or 10e^4 PBMC/well were co-cultured with the peptides listed in Table 11 below for 7 days and the supernatants were tested for IFN-γ production.

[4] = tested on: TIL; experiment: IFN-γ induction assay / cytokine production of TIL after anti-CD3 crosslinking, 24 h, 10e5 cells; type: cell-based, human; details: TIL with or without cardiolipin
Experimental: In table 3, TIL were seated in at 10e^5 cells/well in triplicates in medium containing IL-2/IL-7/IL-15+cardiolipin (medium) or in IL-2/IL-7/IL-15+cardiolipin plus anti-CD3-IgG1 at 30 ng/mL to crosslink the T-cell receptor.
Supernatants were harvested after 24 hours in order to test for maximal T-cell activation defined in 24 hrs./10e^5 cells for comparison. The delta between maximal stimulation (b) and constitutive cytokine production (A) is summarized in row “delta (B-A)”.
This assay is used to measure the IFN-γ production after anti-CD3 induced activation during 24 h in 10^5 cells.

[5] = tested on: TIL; experiment: RNA sequencing, differential gene expression in TIL grown with and without cardiolipin; type: cell-based, human; details: TIL expanded with vs without cardiolipin, DESeq2 FDR <0.10
Experimental: RNA from TIL was isolated using the commercially available RNeasy Mini Kit (Qiagen) and sequencing was done using the Illumina NovaSeq 6000 system with 100 bp paired end read lengths. Adapters were removed.
Transcriptome sequencing data alignment was performed using STAR two-pass method to human genome build hg19. Duplicates were marked using the Picard's MarkDuplicates tool and reads were split using the GATK SplitNCigarReads tool and variants were called using Varscan2. STAR-Fusion was used to identify candidate fusion transcripts and its output was annotated using AGFusion.
RNA sequencing was performed in seven of TIL expansions (i.e. from seven individual patients) with or without cardiolipin and tested for differential gene expression (FIG. 15). Genes with extremely low counts across samples were removed because they provide little evidence for differential expression and may interfere with some of the statistical approximations used.

[6] = tested on: PBMCs; experiment: Percentage of γδ T-cells in healthy individuals PBMCs expanded in presence or absence of cardiolipin; type: cell-based, human
Experimental: PBMCs of healthy individuals expanded in the presence of cardiolipin without interleukins increased the frequency of γδ T-cells (Table 4).
(§1) TIL and PBMCs were analyzed using several DuraClone (Beckman Coulter) Panels, always with addition of the LIVE/DEAD™ Fixable Yellow Dead Cell Stain Kit: DuraClone IM T-cell Subsets tube adding LAG-3 BV650 and CD95 BV785 and Duraclone IM TCRs tube. Besides, another panel with commercially available antibodies were used, which included CD4 Pacific Blue, CD8 KromeOrange, CXCR3 BV650, CD95 BV785, CD103 FITC, CCR7 PE, CCR4 PE/Dazzle, TCR pan-γ/δ PC5.5, CCR6 PC-7, CCR9 Alexa Fluor 647, CD45RA AF700, CD3 APC-A750 and LIVE/DEAD™ Fixable Yellow Dead Cell Stain Kit. After 15 minutes incubation, T-cells and PBMCs were washed in PBS-2% FBS and acquired using a CytoFlex LX flow cytometer from Beckman Coulter. Analysis was performed using FlowJo software.

[7] = tested on: TIL; experiment: Flow cytometric analysis of TIL and PBMC phenotype; type: cell-based, human
Experimental: Different phenotypes in TIL were observed, when using different tumor regions in the three-expansion step herein proposed.
γδ T-cells were negatively sorted using a commercial kit from Stem Cell. Purity of negatively sorted cells was tested by flow cytometry using the DURAclone panel IM TCRs.
as §1

[8] = tested on: TIL; experiment: CD107a assay; type: cell-based, human; details: TIL with or without cardiolipin
Experimental: Briefly, positive control cells were stimulated with 1 μg/mL of PMA; non-stimulated cells served as the control and data were performed in triplicates. Both stimulated and non-stimulated cells were incubated with a protein transport inhibitor containing monensin (BD, 51-2092kz) and CD107a PE antibody (clone H4A3, BD 555801) for 2 hours. Then an extracellular staining was performed using CD3 PE-Cy7 (clone UCHT1, BD 563423), CD4 V450 (clone RPA-T4, BD 561838) and CD8 APC-Cy7 (clone SK1, BD 557834). Control cells are PBMCs that had been cultured for 48-72 hours in the presence of 300 IU/mL IL-2 and 50 IU/mL IL-15. The assay is considered as positive if the positive control cells (PMA stimulated) have at least 2× the SD of the triplicates of the negative control.

[9] = tested on: PBMCs from healthy individuals; experiment: Cardiolipin titration: IFN-γ and IL-17A production in PBMCs and whole blood; type: cell-based, human; details: 250 nM cardiolipin, PBMCs from healthy individuals stimulated with OKT3 (30 ng/mL)
[10] = tested on: TIL; experiment: Treg detection assay; type: cell-based, human; details: TIL with or without cardiolipin
Experimental: Briefly, cells were stained extracellularly with CD3 PE (clone UCHT-1, BD 555749), CD4 V450 (clone RPA-T4, BD 561838), CD8 APC-Cy7 (clone SK1, BD 557834), CD25 PE-Cy7 (clone 2A3, BD 335824), CD127 APC (clone R34.34, Beckman Coulter B42026) for 15 minutes in ice and then washed and permeabilized using Biolegend's True-Nuclear Transcription Factor Buffer Set according to manufacturer's instructions.
Cells were then stained intracellularly with FOXP3 Alexa488 antibody (clone 259D/C7, BD 560047) or an IgG1 isotype control Alexa 488 (BD 557702), and CD3 PE (clone UCHT-1, BD 555749). Tregs cells were identified by flow cytometry as CD3^+ CD4^+ CD25^high CD127^−FoxP3^+).

Compound: CC(C)(O)c1coc(S(=O)(=O)NC(=O)Nc2c3c(cc4c2CCC4)CCC3)c1 [MCC950]
- tumor associated antigen (KRAS epitope) recognition in TIL [1]: statistically reduces the function of cardiolipin; also recorded: reduces the tumor associated antigen recognition in TIL

Compound: PVTSLSSVSTGDTTP [MUC4-P3 [Mut][WT]]
- IgG binding reactivity to the nominal MUC4 epitope [2]: strong IgG binding reactivity
- Pancreatic TIL D1599 IFN-y ([3]; Pancreatic TIL D1599): 0 pg/mL
- Pancreatic TILD1599 IL 17 ([3]; Pancreatic TIL D1599): 2 pg/mL

Compound: cardiolipin
- IFN-γ production in TIL [4]: no differences
- IL-17 production in TIL [4]: no differences
- CXCL9 gene expression [5]: over-expressed
- CXCL10 gene expression [5]: over-expressed
- KBTBD11 gene expression [5]: statistically reduced
- frequency of γδ T-cells ([6]; PBMCs of healthy individuals expanded with cardiolipin without interleukins): increased
- Percentage of γδ T-cells, w/CL ([6]; healthy individuals PBMCs, presence of cardiolipin, without interleukins, single donors, listed as CL): 10.5% and 9.32% and 26% and 10.9% and 22.9%
- Percentage of γδ T-cells, w/CL, Average ([6]; healthy individuals PBMCs, presence of cardiolipin, average of donors): 15.92%
- recognition of commonly shared tumor-associated antigens (KRAS, mesothelin) by TIL, IFN-γ production ([3]; TIL expanded in cardiolipin): recognized a high number of KRAS as well as mesothelin targets
- T-cell maturation, activation, or exhaustion markers ([7]; CD4+, CD8+, double-positive, double-negative or γδ+ TIL, with vs without cardiolipin): not observed
- frequency of γδ TIL ([7]; TIL expanded with IL-7, IL-15, IL-21 with vs without cardiolipin): increased
- CD107 induction in TIL [8]: no differences
- production of IFN-γ [9]: favorable production of IFN-γ
- regulatory T-cells (Treg) in TIL [10]: no differences
